Each structure is given as a SMILES string. “And” between values parts separate entries of the source, which are not always exact repeats. Equal values may be shown once.

These results are taken from ChEMBL document CHEMBL5442168, “ASAP - In vitro liver microsomal stability” (2024).

Data set [1] can be described thus: Mouse liver microsomal stability of compound in microsomal protein, PBS buffer pH 7.4, NADPH, glucose-6-phosphate and glucose-6-phosphate dehydrogenase media. Aliquotes were taken at 5 time points and after stopping the reaction, supernatants were analyzed using HPLC coupled with a tandem mass spectrometer. The elimination constant, half-life, and intrinsic clearance are determined as results using linear regression analysis. The assay has been performed by Enamine biological services, Bienta Ltd.The protocol is publicly available: dx.doi.org/10.17504/protocols.io.5qpvokdb9l4o/v1. Type of data set: ADME, microsomes, Microsome. The note with it: for half-life / microsomal CLint: liver microsomes; for Remaining / Remaining (without cofactor) / CLint / T1/2: microsomes. Background: Liver microsomes are vesicles of endoplasmic reticulum, rich in cytochrome P450 enzymes.

A short description of data set [2]: Human liver microsomal stability of compound in microsomal protein, PBS buffer pH 7.4, NADPH, glucose-6-phosphate and glucose-6-phosphate dehydrogenase media. Aliquotes were taken at 5 time points and after stopping the reaction, supernatants were analyzed using HPLC coupled with a tandem mass spectrometer. The elimination constant, half-life, and intrinsic clearance are determined as results using linear regression analysis. The assay has been performed by Enamine biological services, Bienta Ltd.The protocol is publicly available: dx.doi.org/10.17504/protocols.io.5qpvokdb9l4o/v1. In kind it is ADME, microsomes, Microsome. The settings on record: for half-life / microsomal CLint: liver microsomes; for Remaining / Remaining (without cofactor) / CLint / T1/2: microsomes.
For Remaining (without cofactor) in this document: time not given here.
For Remaining in this document: time not given here.

Turning to `COCCNC(=O)c1c[nH]c2ncnc(N[C@@H](c3ccc4c(c3)S(=O)(=O)CCC4)C(C)C)c12`, in data set [1], the half-life – broadly, how long it takes for the measured level to halve – was found to be 1.9 min; the microsomal CLint (as a rule, a measure of how fast metabolising enzymes remove a compound, apart from limits set by blood flow) amounted to 888 µL/min/mg; the Remaining came to 0%; the “Remaining (without cofactor)” value amounted to 99%. Besides, in data set [2], the half-life is 3.1 min, the microsomal CLint is 540 µL/min/mg, the Remaining stood at 0% and the “Remaining (without cofactor)” value amounted to 106%.
Turning to `Cn1ncc(-c2cc3c(N[C@@H](c4ccc5c(c4)OCCO5)C(C)(C)C)ncnc3[nH]2)c1C#N`, in data set [1], the half-life came to 8.4 min, the microsomal CLint turned out to be 199 µL/min/mg, the Remaining is given as 4% and the “Remaining (without cofactor)” value worked out at 100%. For the same compound, in data set [2], the half-life was 19.6 min, the microsomal CLint is 85 µL/min/mg, the Remaining is given as 22% and the “Remaining (without cofactor)” value is reported as 109%.
Take `CC(C)[C@H](Nc1ncnc2[nH]c(-c3cnn(C)c3)cc12)c1ccc2c(c1)S(=O)(=O)CCC2`: in data set [1], the half-life worked out at 6.5 min, the microsomal CLint worked out at 255 µL/min/mg, the Remaining turned out to be 1% and the “Remaining (without cofactor)” value was found to be 98%. Also, in data set [2], the half-life turned out to be 9.9 min, the microsomal CLint was found to be 169 µL/min/mg, the Remaining amounted to 7% and the “Remaining (without cofactor)” value turned out to be 95%.
Regarding `CNC(=O)c1c[nH]c2ncnc(N[C@H](c3ccc4c(c3)S(=O)(=O)CCC4)C(C)C)c12`, in data set [1], the half-life came out at 2.2 min, the microsomal CLint worked out at 770 µL/min/mg, the Remaining is recorded as 0% and the “Remaining (without cofactor)” value was determined as 99%. Further, in data set [2], the half-life came to 6.5 min, the microsomal CLint amounted to 258 µL/min/mg, the Remaining worked out at 1% and the “Remaining (without cofactor)” value was found to be 94%.
As to `CC(C)[C@H](Nc1ncnc2[nH]c(-c3cnn(C)c3C#N)cc12)c1ccc2c(c1)OCCO2`, in data set [1], the half-life worked out at 6.5 min, the microsomal CLint stood at 257 µL/min/mg, the Remaining is 2% and the “Remaining (without cofactor)” value amounted to 113%. In data set [2], the half-life amounted to 2.4 min, the microsomal CLint is 706 µL/min/mg, the Remaining is listed as 1% and the “Remaining (without cofactor)” value came to 103%.
For the compound `CC(C)[C@@H](Nc1ncnc2[nH]c(-c3ccc4nnn(C)c4c3)cc12)c1ccc2c(c1)S(=O)(=O)CCC2`, in data set [1], the half-life is 7.6 min, the intrinsic clearance (microsomal CLint) amounted to 219 µL/min/mg, the Remaining is 3% and the “Remaining (without cofactor)” value turned out to be 93%. In data set [2], the half-life turned out to be 2.2 min, the microsomal CLint is 752 µL/min/mg, the Remaining turned out to be 0% and the “Remaining (without cofactor)” value worked out at 93%.
As for `CC(C)[C@H](Nc1ncnc2[nH]c(-c3cnn(CC(N)=O)c3)cc12)c1ccc2c(c1)S(=O)(=O)CCC2`, in data set [1], the half-life was 42.6 min, the microsomal CLint turned out to be 39 µL/min/mg, the Remaining was determined as 53% and the “Remaining (without cofactor)” value turned out to be 98%. In data set [2], the half-life came to 7 min, the microsomal CLint was 240 µL/min/mg, the Remaining is listed as 2% and the “Remaining (without cofactor)” value is given as 115%.
In data set [1], `CC(C)[C@@H](Nc1ncnc2[nH]c(-c3cnn(C)c3C#N)cc12)c1ccc2c(c1)S(=O)(=O)CCC2` yielded a half-life of 3.8 min, a microsomal CLint of 440 µL/min/mg, a CLint of 709 µL/min/mg and a Remaining of 0%. For the same compound, in data set [1], the “Remaining (without cofactor)” value is 96% and 106%; the T1/2 stood at 2.4 min. In data set [2], the half-life turned out to be 3.4 min; the microsomal CLint turned out to be 490 µL/min/mg; the CLint came to 516 µL/min/mg; the Remaining was 1% and 0%. In data set [2], the “Remaining (without cofactor)” value is 94% and 101%; the T1/2 worked out at 3.2 min.
With `CC(C)[C@H](Nc1ncnc2[nH]c(C(=O)N[C@@H]3CCN(C)C3)cc12)c1ccc2c(c1)S(=O)(=O)CCC2`, in data set [1], the half-life amounted to 649 min, the microsomal CLint was 3 µL/min/mg, the Remaining is 104% and the “Remaining (without cofactor)” value came out at 107%. In data set [2], the half-life turned out to be 627 min, the microsomal CLint was found to be 3 µL/min/mg, the Remaining came out at 98% and the “Remaining (without cofactor)” value amounted to 100%.
With `CC(C)[C@@H](Nc1ncnc2[nH]c(-c3cnn(C)c3)cc12)c1ccc2c(c1)S(=O)(=O)CCC2`, in data set [1], the half-life is 10.8 min; the microsomal CLint amounted to 155 µL/min/mg; the CLint worked out at 140 µL/min/mg; the Remaining is 7% and 10%. Also, in data set [1], the “Remaining (without cofactor)” value was 102% and the T1/2 turned out to be 11.9 min. In data set [2], the CLint was 141 µL/min/mg and 405 µL/min/mg; the Remaining was 10% and 0%; the “Remaining (without cofactor)” value was 102% and 105%; the T1/2 was 11.9 min and 4.1 min.
Consider `CNC(=O)c1c[nH]c2ncnc(N[C@@H](c3ccc4c(c3)S(=O)(=O)CCC4)C(C)C)c12`, for which, in data set [1], the half-life turned out to be 8.7 min; the microsomal CLint worked out at 192 µL/min/mg; the CLint was 113 µL/min/mg; the “Remaining (without cofactor)” value was 92% and 108%. Moreover, the T1/2 in data set [1] came to 14.7 min. Moreover, in data set [2], the half-life worked out at 12.8 min; the microsomal CLint amounted to 131 µL/min/mg; the CLint was determined as 108 µL/min/mg; the Remaining is 11% and 17%. Besides, in data set [2], the “Remaining (without cofactor)” value is 104% and 94%; the T1/2 turned out to be 15.4 min.
As for `CCNC(=O)c1cc2c(N[C@@H](c3ccc4c(c3)S(=O)(=O)CCC4)C(C)C)ncnc2[nH]1`, in data set [1], the half-life was 19.5 min; the microsomal CLint was determined as 85 µL/min/mg; the CLint worked out at 54 µL/min/mg; the Remaining is 21% and 43%. Moreover, in data set [1], the “Remaining (without cofactor)” value is 95% and 114%; the T1/2 worked out at 30.8 min. Besides, in data set [2], the Remaining was 15% and 0%; the “Remaining (without cofactor)” value was 98% and 102%.
Regarding `CNCc1cc(-c2cc3c(N[C@@H](c4ccc5c(c4)S(=O)(=O)NCC5)C(C)C)ncnc3[nH]2)co1`, in data set [1], the half-life was 40 min, the microsomal CLint was 42 µL/min/mg, the Remaining worked out at 49% and the “Remaining (without cofactor)” value was 95%. In data set [2], the half-life worked out at 35.9 min, the microsomal CLint is 46 µL/min/mg, the Remaining is reported as 47% and the “Remaining (without cofactor)” value was 93%.
Take `CNC(=O)Cn1cc(-c2cc3c(N[C@H](c4ccc5c(c4)S(=O)(=O)CCC5)C(C)C)ncnc3[nH]2)cn1`: in data set [1], the half-life stood at 15 min, the microsomal CLint came to 111 µL/min/mg, the Remaining worked out at 16% and the “Remaining (without cofactor)” value came out at 96%. In addition, in data set [2], the half-life is 18.1 min, the microsomal CLint was 92 µL/min/mg, the Remaining stood at 23% and the “Remaining (without cofactor)” value is given as 101%.
In the case of `CC(C)[C@@H](Nc1ncnc2[nH]ccc12)c1ccc2c(c1)S(=O)(=O)CCO2`, in data set [1], the half-life is 24.2 min, the microsomal CLint amounted to 69 µL/min/mg, the Remaining came to 33% and the “Remaining (without cofactor)” value was 111%. In data set [2], the half-life turned out to be 91.3 min, the microsomal CLint is 18 µL/min/mg, the Remaining is on record as 74% and the “Remaining (without cofactor)” value is recorded as 92%.
